From US7482367B2, “Substituted benzimidazoles and methods of their use” (Novartis Vaccines and Diagnostics, Inc., priority 2005, dated 2009)
Read-outs that look alike come from different tables or passages of the source.

Legend:
[1] = format: in vivo, Nu/Nu mice; conditions: for Mean body weight loss on day 28: 100 mg/kg per dose
Protocol: Therefore, the most efficacious dosage of 100 mg/kg was further evaluated as described below.

[2] = format: in vivo, mice; conditions: at target plasma concentration, corrected for protein binding
Plasma protein binding = format: in vitro ADME
[3] = test system: SKMEL-2 (wild-type Raf, mutant N-Ras); conditions: SKMEL-2 cells; 0.1 μM to 10 μM; 4 hours of incubation
[4] = test system: CHL-1 (wild-type Raf, wild-type Ras); conditions: CHL-1 cells; 0.1 μM to 10 μM; 4 hours of incubation
human tumor isolate #4 [5] = conditions: Pancreatic tumor, K-Ras
human tumor isolate #5 [6] = conditions: Colorectal tumor, K-Ras
[7] = test system: HT-29 (B-Raf V600E) colorectal carcinoma tumors; conditions: HT29, q2 d × 14, oral
[8] = test system: SKMEL-28 (mutant B-Raf V600E); assay: cells; conditions: Homo sapiens, SK-MEL-28, read-out: pERK inhibition EC50
WM1799 (cell line) = assay: cells; conditions: WM-1799, 168 h
HT-29 (cell line) = assay: cells; conditions: Homo sapiens, HT-29, 168 h
Colo205 (cell line) = assay: cells; conditions: Homo sapiens, COLO 205, 168 h
human tumor isolate #1 = assay: cells
human tumor isolate #2 = assay: cells
human tumor isolate #3 = assay: cells
human tumor isolate #4 [9] = assay: cells; conditions: Pancreatic tumor, K-Ras
human tumor isolate #5 [10] = assay: cells; conditions: Colorectal tumor, K-Ras
human tumor isolate #6 = assay: cells
human tumor isolated #7 = assay: tissue or blood

Which results are given for Cn1c(Nc2ccc(C(F)(F)F)cc2)nc2cc(Oc3ccnc(-c4ncc(C(F)(F)F)[nH]4)c3)ccc21 [Example 1, {1-Methyl-5-[2-(5-trifluoromethyl-1H-imidazol-2-yl)-pyridin-4-yloxy]-1H-benzoimidazol-2-yl}-(4-trifluoromethyl-phenyl)-amine]?
Mean body weight loss on day 28 ([1]; q2 d): 12%; Mean body weight loss on day 28 ([1]; q3 d): 8%; Mean body weight loss on day 28 ([1]; q4 d): 7%; average loss of starting body weight by day 14 ([1]; daily dosing, 30 mg/kg and 100 mg/kg dose levels): 10%; rough estimation of free drug concentration [2]: approximately 0.135 μM; protein bound in plasma (Plasma protein binding): greater than 99.9%; inhibition of Raf downstream signaling (MEK phosphorylation) [3]: potent inhibitor of Raf downstream signaling; inhibition of Raf downstream signaling (MEK phosphorylation) [4]: potent inhibitor of Raf downstream signaling; EC50 (human tumor isolate #4 [5]): 1270 nM; EC50 (human tumor isolate #5 [6]): 1200 nM; TGI/Regression ([7]; 10 mg/kg): 12% TGI; TGI/Regression ([7]; 100 mg/kg): tumor regression; EC50 [8]: 100 nM; EC50 (WM1799 (cell line)): < 9.8 nM; EC50 (HT-29 (cell line)): 26 nM; EC50 (Colo205 (cell line)): 130 nM; EC50 (human tumor isolate #1): 55 nM; EC50 (human tumor isolate #2): 200 nM; EC50 (human tumor isolate #3): 570 nM; EC50 (human tumor isolate #4 [9]): ~1000 nM; EC50 (human tumor isolate #5 [10]): ~1000 nM; EC50 (human tumor isolate #6): > 1000 nM; EC50 (human tumor isolated #7): > 1000 nM
